# Experimental data taken from patent US20240269170A1, “Treatment of Inflammatory Conditions or Diseases” (Queen Mary University of London, priority 2021, published 2024).
# What was measured:
# arthritic femur heads = assay: Organ culture of arthritic femur heads with monocyte-derived macrophages, Safranin-O staining; assay type: cell-based, mouse; settings: monocytes incubated with 10 μM RG108 for 45 min before 1 nM MCTR3
# Method: FIG. 6: Arg-1 mediates the anti-inflammatory and cartilage protective activities of MCTR3-trained monocytes. (A,B) Femur heads and bone marrow-derived monocytes were collected 5 days following the induction of arthritis in C57BL/6 mice. Femur heads were incubated in serum free DMEM high glucose containing 1% insulin-transferrin-selenium for 48 hours and then in DMEM containing 10% FBS and 10 ng/ml IL-1B for 4 days. Monocytes were incubated with vehicle (PBS+0.1% EtOH) or 1 nM MCTR3 for 24 hours, then differentiated to monocyte-derived macrophages. Two days after the initiation of differentiation, cells were transfected with control siRNA or siRNA against Arg-1. […] Tissues were then collected and glycosaminoglycan content was evaluated using Safranin-O staining. (A) Representative images and (B) quantitation of Safranin-O staining. […] Statistical differences were evaluated using Wilcoxon signed rank test when assessing for differences vs Vehicle group and using one-way ANOVA and Kruskal Wallis post hoc test when evaluating differences vs MCTR3 treated group.
# FIG. 12: DNMT enzyme inhibition reverses the ability of MCTR3 to upregulate Arg-1 in MDM and the cartilage protective activities of MCTR3-trained monocytes. […] The proteoglycan concentrations in the femur heads were assessed using Safranin O staining. […] Statistical differences were evaluated using one-sample Wilcoxon signed rank test. […]
# Arg-1 = Arg-1 expression in bone marrow monocyte-derived macrophages differentiated in vitro, flow cytometry; assay type: cell-based, mouse
# Method: (B) Mice were administered K/B×N serum on days 0, 2 and 9 then on day 12 they were treated 2×10^6 PKH67-labelled monocytes isolated from arthritic mice and incubated with either vehicle (PBS+0.1% EtOH) or 1 nM MCTR3 for 90 min via i.v injection. After 10 days joints were harvested, cells were liberated that the expression of Arg-1 was evaluated in PKH67^+CD64^+ cells using flow cytometry. Results are from n=10 mice per group. Statistical differences were evaluated using a Mann-Whitney U test. (C) Inflammatory arthritis was induced in C57BL/6 mice and bone marrow-derived monocytes were isolated and treated as in A and Arg-1 expression was evaluated using flow cytometry. Results are mean±SEM and expressed as percentage change from cells incubated with vehicle alone. n=8 per group from two separate experiments. Statistical differences were evaluated using one-sample Wilcoxon signed rank test. (D) Mice were given K/B×N serum (via i.p. injection) on days 0, 2 and 9. […] On day 22, joints were collected and the expression of Arg-1 in PKH67^+ CD64^+ cells was evaluated using flow cytometry. Results are mean±SEM and expressed as percentage change from vehicle group. n=5 mice per group. Statistics differences were evaluated Mann-Whitney U test. […]
Structure (SMILES),cartilage protective activities of MCTR3-trained monocytes (arthritic femur heads),ability of MCTR3 to upregulate Arg-1 in vitro (Arg-1; monocytes incubated with 10 μM RG108 for 45 min before 1 nM MCTR3),Arg-1 expression in MDM differentiated in vitro (Arg-1; 1 nM MCTR3 for 24 hours on monocytes)
O=C(O)C(Cc1c[nH]c2ccccc12)N1C(=O)c2ccccc2C1=O (stereo not drawn) [RG108],reverses,reversed,–
"CC/C=C\C/C=C\C[C@H](O)[C@@H](/C=C/C=C/C=C\C/C=C\CCC(=O)O)SC[C@H](N)C(=O)O [MCTR3, 13R-cysteinyl, 14S-hydroxy-4Z, 7Z, 9E, 11E, 13R, 14S, 16Z, 19Z-docosahexaenoic acid]",–,–,upregulate
